Experimental data from patent publication US6872713B1, “Antiprotozoal saponins” (Janssen Pharmaceutica N.V., priority 1999, dated 2005).
≈ marks a conversion by molar mass, not a printed value.

What was measured:
[1] = test system: L. mexicana; assay: In vivo skin lesion model, L. mexicana (prophylactic and curative); set-up: species or system mice and hamsters; conditions: L. mexicana proph., 10 mg/kg
Description: (§1) Methods for in vivo maintenance of Leishmania organisms and animals models are well documented in the international literature. Balb-C mice and golden hamsters are the preferred laboratory animal species for primary isolation, maintenance and use in artificial infection models. Testing protocols are flexible and may be adapted according to the specific objectives and characteristics of the test compounds. Briefly, the following in vivo methodologies have been used:
(§2) For cutaneous and mucocutaneous Leishmania species:Balb-C mice or young hamsters were infected intradermally or subcutaneously with about 10^6 to 10^7 amastigotes derived from the target organs (generally skin lesion) of an infected donor animal or from an in vitro culture of parasite forms. The animals were treated with the test compound at different dose levels (mg/kg in 100% DMSO or any other acceptable vehicle), using different routes of administration and treatment schedules. Initiation of treatment was either before infection (prophylactically) or at different times after infection (curatively). In the prophylactic study design, the first administration of the test drug is given immediately before or together with the artificial infection with the Leishmania species. In the curative study design, the first administration of the test drug is given several weeks after the artificial infection with the Leishmania species (early curative=when the first dermal lesions appear; late curative=when dermal lesions are well established or become chronic). Drug activity was evaluated either by determination of the severity of the lesion in the relevant target tissue/organ (primary parameter) or of the parasite burdens in the relevant target tissue/organ (secondary parameter), compared to untreated control animals. The lesion size was assessed quantitatively using the method of J. El-On. and A. D. Hamburger [Trans. Roy. Soc. Trop. Med. Hyg., 81, 734-737 (1987)]. The percentage reduction serves as an indication for antileishmanial activity and provides significant leads for clinically useful agents. The lowest active dose (LAD) is defined as the lowest dose which prevents lesions to develop, stops further evolution of the lesions or induces a clinical cure of the lesions in the primary target organ or tissue.

[2] = test system: L. panamensis; assay: In vivo skin lesion model, L. panamensis (prophylactic and curative); set-up: species or system mice and hamsters; conditions: L. panamensis proph., 10 mg/kg
Description: as §1, §2

[3] = test system: L. mexicana; assay: In vitro antileishmanial activity in primary mouse macrophages, L. mexicana; format: cell-based; conditions: Leishmania mexicana, Macrophage, L. mexicana (cutaneous)
Description: (§3) Methods for the in vitro growth of Leishmania organisms and screening methodology are well documented in the international literature. Testing protocols are flexible and may be adapted according to the specific objectives and the characteristics of the test compounds. Briefly, the following in vitro methodology has been used: Primary peritoneal macrophages derived from laboratory rodents or macrophage cell lines were seeded in multiwell tissue culture vessels and allowed to attach for about 24 hours. Amastigotes of the Leishmania species (obtained from target tissues of an infected donor animal or from amastigote-infected tissue cultures) or promastigotes of the Leishmania species were added at an appropriate infection ratio together with varying serially diluted concentrations of the drug or test compound. […] Treatment of uninfected control cultures was also included in order to determine a selectivity index. Reference drug treated cultures were included as well so as to determine the relative potency of the test drug. Drug activity was determined in stained preparations as the percentage reduction of the total parasite load or the number of infected macrophages compared to the untreated control cultures.

[4] = test system: L. major; assay: In vivo skin lesion model, L. major (prophylactic and curative); set-up: species or system mice and hamsters; conditions: L. major proph., 10 mg/kg
Description: as §1, §2

[5] = test system: L. infantum; assay: In vitro antileishmanial activity in macrophages, L. infantum; format: cell-based; conditions: Leishmania infantum, Macrophage; L. infantum (visceral), primary mouse macrophages
Description: as §3

[6] = test system: L. major; assay: Lowest active dose regimen in Balb-C mice, L. major; format: in vivo; conditions: L. major prophylactic; no regimen given
Description: as §1
(§4) For cutaneous and mucocutaneous Leishmania species:Balb-C mice or young hamsters were infected intradermally or subcutaneously with about 10^6 to 10^7 amastigotes derived from the target organs (generally skin lesion) of an infected donor animal or from an in vitro culture of parasite forms. The animals were treated with the test compound at different dose levels (mg/kg in 100% DMSO or any other acceptable vehicle), using different routes of administration and treatment schedules. […] Drug activity was evaluated either by determination of the severity of the lesion in the relevant target tissue/organ (primary parameter) or of the parasite burdens in the relevant target tissue/organ (secondary parameter), compared to untreated control animals. The lesion size was assessed quantitatively using the method of J. El-On. and A. D. Hamburger [Trans. […]

[7] = test system: L. panamensis; assay: Lowest active dose regimen in Balb-C mice, L. panamensis; format: in vivo; conditions: L. panamensis prophylactic; no regimen given
Description: as §1, §4

[8] = test system: L. major; assay: In vitro antileishmanial activity in primary mouse macrophages, L. major; format: cell-based; conditions: Leishmania major, Macrophage, L. major (cutaneous)
Description: as §3

[9] = test system: L mexicana; assay: Lowest active dose regimen in Balb-C mice, L mexicana; format: in vivo; conditions: L mexicana prophylactic; no regimen given
Description: as §1, §4

[10] = test system: L. donovani; assay: In vitro antileishmanial activity in primary mouse macrophages, L. donovani; format: cell-based; conditions: Leishmania donovani, Macrophage, L. donovani (visceral)
Description: as §3

[11] = test system: L. donovani; assay: Lowest active dose regimen in Balb-C mice, L. donovani; format: in vivo; conditions: no regimen given
Description: as §1
For visceral Leishmania species: Balb-C mice or young hamsters were intravenously infected with about 10^6 to 10^7 amastigotes derived from the target organs (generally spleen) of an infected donor animal or from an in vitro culture of parasite forms. The animals were treated with the test compound at different dose levels (dose range: 0.1 to 80 mg/kg in 100% DMSO or any other acceptable vehicle), using different routes of administration and treatment schedules. Initiation of treatment was either at different times after infection (curatively), concomitant with infection (prophylactically) or before infection (residual activity). In the prophylactic study design, the first administration of the test drug is given immediately before or together with the artificial infection with the Leishmania species. In the curative study design, the first administration of the test drug is given several weeks after the artificial infection with the Leishmania species (early curative=when the first clinical signs appear; late curative=when the clinical symptoms are well established or become chronic). Drug activity was evaluated by determination of the total parasite burdens in the liver or any other relevant target tissue/organ, compared to the tissue/organ burdens in untreated control animals. The mean number of amastigotes is enumerated quantitatively or semi-quantitatively on stained impression smears or slides. The percentage reduction serves as an indication for antileishmanial activity and provides significant leads for clinically useful agents. […]

C[C@@H]1[C@H](O)[C@@H](C)/C=C/C=C/C=C/C=C/C=C/C=C/C=C/[C@H](O[C@@H]2O[C@H](C)[C@@H](O)[C@H](N)[C@@H]2O)C[C@@H]2O[C@](O)(C[C@@H](O)C[C@@H](O)[C@H](O)CC[C@@H](O)C[C@@H](O)CC(=O)O[C@H]1C)C[C@H](O)[C@H]2C(=O)O [Ampho-B, amphothericin-B]
skin lesion size ([1]; week 0 post infection): 0 mm^2
skin lesion size ([1]; week 1 post infection): 0 mm^2
skin lesion size ([1]; week 2 post infection): 0 mm^2
skin lesion size ([1]; week 3 post infection): 0 mm^2
skin lesion size ([1]; week 4 post infection): 0 mm^2
skin lesion size ([1]; week 5 post infection): 1 mm^2
skin lesion size ([1]; week 6 post infection): 2 mm^2
skin lesion size ([1]; week 7 post infection): 7 mm^2
skin lesion size ([1]; week 8 post infection): 13 mm^2
skin lesion size ([1]; week 9 post infection): 34 mm^2
skin lesion size ([1]; week 10 post infection): 85 mm^2
skin lesion size ([1]; week 11 post infection): 101 mm^2
skin lesion size ([1]; week 12 post infection): 112 mm^2
skin lesion size ([2]; week 0 post infection): 0 mm^2
skin lesion size ([2]; week 1 post infection): 0 mm^2
skin lesion size ([2]; week 2 post infection): 0 mm^2
skin lesion size ([2]; week 3 post infection): 0 mm^2
skin lesion size ([2]; week 4 post infection): 1 mm^2
skin lesion size ([2]; week 5 post infection): 9 mm^2
skin lesion size ([2]; week 6 post infection): 15 mm^2
skin lesion size ([2]; week 7 post infection): 30 mm^2
skin lesion size ([2]; week 8 post infection): 30 mm^2
skin lesion size ([2]; week 9 post infection): 42 mm^2
skin lesion size ([2]; week 10 post infection): 42 mm^2
skin lesion size ([2]; week 11 post infection): 43 mm^2
skin lesion size ([2]; week 12 post infection): 39 mm^2
EC50 [3]: 0.1 µg/mL (≈ 0.108 µM)
skin lesion size ([4]; week 0 post infection): 0 mm^2
skin lesion size ([4]; week 1 post infection): 0 mm^2
skin lesion size ([4]; week 2 post infection): 1 mm^2
skin lesion size ([4]; week 3 post infection): 1 mm^2
skin lesion size ([4]; week 4 post infection): 12 mm^2
skin lesion size ([4]; week 5 post infection): 31 mm^2
skin lesion size ([4]; week 6 post infection): 41 mm^2
skin lesion size ([4]; week 7 post infection): 57 mm^2
skin lesion size ([4]; week 8 post infection): 95 mm^2
EC50 [5]: 0.1 µg/mL (≈ 0.108 µM)
Lowest active dose (LAD) regimen [6]: not effective
Lowest active dose (LAD) regimen [7]: not effective
EC50 [8]: 0.2 µg/mL (≈ 0.216 µM)
Lowest active dose (LAD) regimen [9]: not effective
EC50 [10]: 0.1 µg/mL (≈ 0.108 µM)
Lowest active dose (LAD) regimen ([11]; L. donovani curative early): not effective
Lowest active dose (LAD) regimen ([11]; L. donovani prophylactic): not effective
residual activity ([11]; L. donovani): not effective

CCC(C)n1ncn(-c2ccc(N3CCN(c4ccc(OCC5COC(Cn6cncn6)(c6ccc(Cl)cc6Cl)O5)cc4)CC3)cc2)c1=O (centres unmarked) [itraconazole]
EC50 [5]: > 12.5 µg/mL
EC50 [10]: > 12.5 µg/mL
